Patent publication US7960389B2, “4(phenyl-piperazinyl-methyl) benzamide derivatives and their use for the treatment of pain or gastrointestinal disorders” (priority 2002, dated 2011)
Read-outs that look alike come from different tables or passages of the source.

Key:
human δ receptors [1] = target: T1, human δ receptors (Homo sapiens, UniProt P41143); experiment: Binding assay, membranes of human 293S cells expressing cloned human δ receptors
T1 construct: expressed in transfected cells; host or cells: human 293S (HEK-293S) cells

human δ receptors [2] = target: T1, human δ receptors; experiment: Human δ receptor functional assay (GTP[γ]35S binding, HEK-293S cell membranes); type: biochemical; conditions: for Emax: relative to standard δ agonist SNC80, receptors expressed at higher levels, read-out: Human δ % EMax (high)
Description: (§1) • A. Human 293S cells expressing cloned human κ, δ and μ receptors and neomycin resistance are grown in suspension at 37° C. and 5% CO2 in shaker flasks containing calcium-free DMEM10% FBS, 5% BCS, 0.1% Pluronic F-68, and 600 μg/ml geneticin. • B. Rat brains are weighed and rinsed in ice-cold PBS (containing 2.5 mM EDTA, pH 7.4). The brains are homogenized with a polytron for 30 sec (rat) in ice-cold lysis buffer (50 mM Tris, pH 7.0, 2.5 mM EDTA, with phenylmethylsulfonyl fluoride added just prior use to […] from a 0.5M stock in DMSO:ethanol). Membrane Preparation
Cells are pelleted and resuspended in lysis buffer (50 mM Tris, pH 7.0, 2.5 mM EDTA, with PMSF added just prior to use to 0.1 mM from a 0.1 M stock in ethanol), incubated on ice for 15 min, then homogenized with a polytron for 30 sec. The suspension is spun at 1000 g (max) for 10 min at 4° C. The supernatant is saved on ice and the pellets resuspended and spun as before. The supernatants from both spins are combined and spun at 46,000 g(max) for 30 min. The pellets are resuspended in cold Tris buffer (50 mM Tris/Cl, pH 7.0) and spun again. The final pellets are resuspended in membrane buffer (50 mM Tris, 0.32 M sucrose, pH 7.0). Aliquots (1 ml) in polypropylene tubes are frozen in dry ice/ethanol and stored at −70° C. until use. The protein concentrations are determined by a modified Lowry assay with sodium dodecyl sulfate.
(§2) The agonist activity of the compounds is measured by determining the degree to which the compounds receptor complex activates the binding of GTP to G-proteins to which the receptors are coupled. In the GTP binding assay, GTP[γ]^35S is combined with test compounds and membranes from HEK-293S cells expressing the cloned human opioid receptors or from homogenised rat and mouse brain. Agonists stimulate GTP[γ]^35S binding in these membranes. The EC50 and Emax values of compounds are determined from dose-response curves. Right shifts of the dose response curve by the delta antagonist naltrindole are performed to verify that agonist activity is mediated through delta receptors. For human δ receptor functional assays, EC50 (low) is measured when the human δ receptors used in the assay were expressed at lower levels in comparison with those used in determining EC50 (high). The Emax values were determined in relation to the standard δ agonist SNC80, i.e., higher than 100% is a compound that have better efficacy than SNC80.

[3] = target: T2, δ receptors in rat brain membranes (Rattus norvegicus, UniProt P33533); experiment: Rat brain functional assay (GTPγ35S binding, rat brain membranes); type: biochemical; conditions: Table 1, relative to SNC80
T2 construct: Rat brain membranes are thawed at 37° C; from tissue; host or cells: rat brain homogenate membranes
Description: as §1, §2
Rat brain membranes are thawed at 37° C., passed 3 times through a 25-gauge blunt-end needle and diluted in the GTPγS binding (50 mM Hepes, 20 mM NaOH, 100 mM NaCl, 1 mM EDTA, 5 mM MgCl2, pH 7.4, Add fresh: 1 mM DTT, 0.1% BSA). 120 μM GDP final is added membranes dilutions. […] The basal and maximal stimulated binding are determined in absence and presence of 3 μM SNC-80

human κ receptors = target: T3, human κ receptors (Homo sapiens, UniProt P41145); experiment: Binding assay, membranes of human 293S cells expressing cloned human κ receptors
T3 construct: expressed in transfected cells; host or cells: human 293S cells
T3 sequence (P41145 whole entry): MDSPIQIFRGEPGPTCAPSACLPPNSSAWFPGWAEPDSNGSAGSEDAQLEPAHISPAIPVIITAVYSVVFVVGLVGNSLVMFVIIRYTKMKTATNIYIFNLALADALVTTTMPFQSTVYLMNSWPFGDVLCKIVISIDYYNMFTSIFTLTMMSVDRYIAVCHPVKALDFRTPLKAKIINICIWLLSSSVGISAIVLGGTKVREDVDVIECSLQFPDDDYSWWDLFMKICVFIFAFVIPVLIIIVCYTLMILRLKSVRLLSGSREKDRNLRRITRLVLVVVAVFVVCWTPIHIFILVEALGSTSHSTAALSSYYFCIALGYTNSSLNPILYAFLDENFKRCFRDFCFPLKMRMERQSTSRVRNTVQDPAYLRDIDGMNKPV

T2 sequence (P33533 whole entry): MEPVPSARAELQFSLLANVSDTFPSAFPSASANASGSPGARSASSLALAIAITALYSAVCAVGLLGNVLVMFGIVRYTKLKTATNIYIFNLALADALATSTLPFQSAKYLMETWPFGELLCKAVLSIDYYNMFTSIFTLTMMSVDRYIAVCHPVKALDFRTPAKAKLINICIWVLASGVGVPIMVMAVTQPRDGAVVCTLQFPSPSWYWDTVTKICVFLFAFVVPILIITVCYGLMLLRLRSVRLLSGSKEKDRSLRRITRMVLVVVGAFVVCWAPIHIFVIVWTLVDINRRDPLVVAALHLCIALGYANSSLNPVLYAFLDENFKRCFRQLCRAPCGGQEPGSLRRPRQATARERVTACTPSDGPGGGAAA
T1 sequence (P41143 whole entry): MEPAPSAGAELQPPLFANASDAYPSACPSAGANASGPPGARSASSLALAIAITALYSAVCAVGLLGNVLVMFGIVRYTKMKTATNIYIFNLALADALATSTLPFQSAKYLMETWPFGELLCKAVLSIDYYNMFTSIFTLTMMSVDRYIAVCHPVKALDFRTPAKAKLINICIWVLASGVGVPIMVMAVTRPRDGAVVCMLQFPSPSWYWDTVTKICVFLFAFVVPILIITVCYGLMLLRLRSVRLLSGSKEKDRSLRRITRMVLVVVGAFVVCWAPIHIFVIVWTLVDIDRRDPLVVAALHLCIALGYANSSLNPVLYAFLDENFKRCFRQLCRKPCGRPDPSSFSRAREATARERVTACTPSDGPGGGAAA

Row | SMILES | IC50 (human δ receptors [1]) [nM] | EC50 (human δ receptors [2]) [nM] | Emax (human δ receptors [2]; Table 1) [%] | Emax [3] [%] | IC50 (human δ receptors [1]; Table 1, displacement of radioactive δ receptor ligand, read-out: Human δ IC50) [nM] | IC50 (human κ receptors) [nM] | EC50 (human δ receptors [2]; Table 1, human δ receptors expressed at higher levels, read-out: Human δ EC50 (high)) [nM]
1 | CCN(CC)C(=O)c1ccc([C@H](c2cccc(NC(=O)OC)c2)N2CCN(Cc3ccccc3)CC2)cc1 [Compound 1, R-Methyl 3-[(4-[(diethylamino)carbonyl]phenyl)(4-benzyl-piperazin-1-yl)methyl]phenylcarbamate] | 0.25 to 0.74 | 0.55 to 1.93 | 89 to 102 | 135 to 170 | – | – | –
2 | CCN(CC)C(=O)c1ccc([C@@H](c2cccc(NC(=O)OC)c2)N2CCN(Cc3ccccc3)CC2)cc1 [Compound 2, S-Methyl 3-[(4-[(diethylamino)carbonyl]phenyl)(4-benzyl-piperazin-1-yl)methyl]phenylcarbamate] | 0.25 to 0.74 | 0.55 to 1.93 | 89 to 102 | 135 to 170 | – | – | –
3 | CCN(CC)C(=O)c1ccc([C@@H](c2cccc(NC(=O)OC)c2)N2CCN(Cc3cccs3)CC2)cc1 [Compound 3, S-Methyl 3-{{4-[(diethylamino)carbonyl]phenyl}[4-(thien-2-ylmethyl)piperazin-1-yl]methyl}phenylcarbamate] | 0.25 to 0.74 | 0.55 to 1.93 | 89 to 102 | 135 to 170 | – | – | –
4 | CCN(CC)C(=O)c1ccc([C@H](c2cccc(NC(=O)OC)c2)N2CCN(Cc3cccs3)CC2)cc1 [Compound 4, R-Methyl 3-{{4-[(diethylamino)carbonyl]phenyl}[4-(thien-2-ylmethyl)piperazin-1-yl]methyl}phenylcarbamate] | 0.25 to 0.74 | 0.55 to 1.93 | 89 to 102 | 135 to 170 | – | – | –
5 | CCN(CC)C(=O)c1ccc([C@@H](c2cccc(NC(=O)OC)c2)N2CCN(Cc3ccsc3)CC2)cc1 [Compound 5, S-Methyl 3-{{4-[(diethylamino)carbonyl]phenyl}[4-(thien-3-ylmethyl)piperazin-1-yl]methyl}phenylcarbamate] | 0.25 to 0.74 | 0.55 to 1.93 | 89 to 102 | 135 to 170 | – | – | –
6 | CCN(CC)C(=O)c1ccc([C@H](c2cccc(NC(=O)OC)c2)N2CCN(Cc3ccsc3)CC2)cc1 [Compound 6, R-Methyl 3-{{4-[(diethylamino)carbonyl]phenyl}[4-(thien-3-ylmethyl)piperazin-1-yl]methyl}phenylcarbamate] | 0.25 to 0.74 | 0.55 to 1.93 | 89 to 102 | 135 to 170 | – | – | –
7 | CCN(CC)C(=O)c1ccc([C@@H](c2cccc(NC(=O)OC)c2)N2CCN(Cc3ccco3)CC2)cc1 [Compound 7, S-Methyl 3-{{4-[(diethylamino)carbonyl]phenyl}[4-(2-furylmethyl)piperazin-1-yl]methyl}phenylcarbamate] | 0.25 to 0.74 | 0.55 to 1.93 | 89 to 102 | 135 to 170 | – | – | –
8 | CCN(CC)C(=O)c1ccc([C@H](c2cccc(NC(=O)OC)c2)N2CCN(Cc3ccco3)CC2)cc1 [Compound 8, R-Methyl 3-{{4-[(diethylamino)carbonyl]phenyl}[4-(2-furylmethyl)piperazin-1-yl]methyl}phenylcarbamate] | 0.25 to 0.74 | 0.55 to 1.93 | 89 to 102 | 135 to 170 | – | – | –
9 | CCN(CC)C(=O)c1ccc([C@@H](c2cccc(NC(=O)OC)c2)N2CCN(Cc3ccoc3)CC2)cc1 [Compound 9] | 0.25 to 0.74 | 0.55 to 1.93 | 89 to 102 | 135 to 170 | – | – | –
10 | CCN(CC)C(=O)c1ccc([C@H](c2cccc(NC(=O)OC)c2)N2CCN(Cc3ccoc3)CC2)cc1 [Compound 10, R-Methyl 3-{{4-[(diethylamino)carbonyl]phenyl}[4-(3-furylmethyl)piperazin-1-yl]methyl}phenylcarbamate] | 0.25 to 0.74 | 0.55 to 1.93 | 89 to 102 | 135 to 170 | – | – | –
11 | CCN(CC)C(=O)c1ccc([C@H](c2cccc(NC(=O)OC)c2)N2CCN(Cc3ncc[nH]3)CC2)cc1 [Compound 11, R-Methyl 3-{{4-[(diethylamino)carbonyl]phenyl}[4-(1H-imidazol-2-ylmethyl)piperazin-1-yl]methyl}phenylcarbamate] | – | – | 89 to 102 | 135 to 170 | 0.25 to 0.74 | 247 to 1640 | 0.55 to 1.93
